{"source": "patent US9146237B2", "about": "“In vitro assay method using immunological technique” (BASF Beauty Care Solutions France S.A.S., priority 2011, dated 2015)", "key": {"[1]": {"test_system": "intracellular procollagen", "assay": "Procollagen assay by ELISA (PIPc kit) on collected lysis medium", "assay_type": "cell-based, human", "details": "Example 4", "protocol": "A lysis step was carried out: 110 μl of an ammonium hydroxide solution at 20 mM for 10 minutes at room temperature and with stirring. The experiment was carried out without active ingredient on the one hand and with ascorbic acid solubilized in PBS at different concentrations from 0.1 to 100 μM. On the collected lysis medium, a procollagen assay (PIPc kit, TAKARA) by ELISA was carried out for determining the amount of intracellular procollagen (Table 4.2). A DNA assay (Picogreen kit, Invitrogen) was also carried out for rationalizing all of the measurements in each well to the quantity of viable cells. The amounts of collagen and procollagen measured were rationalized to the amount of DNA present in each well."}, "[2]": {"test_system": "type I collagen in the ECM", "assay": "Assay of type I collagen directly on the ECM of fibroblast cultures (anticollagen I antibody, europium TRF)", "assay_type": "cell-based, human", "protocol": "After 48 hours of culture post-confluency, the culture medium was removed and discarded. A lysis step was carried out: 110 μl of an ammonium hydroxide solution at 20 mM for 10 minutes at room temperature and with stirring. The lysate was collected and analysed. The double-stranded DNA contained in the lysate was assayed by using the bisbenzimide method (Picogreen Kit, Invitrogen). The collagen in the ECM was assayed directly on the ECM by using an anticollagen I antibody. A secondary antibody conjugated to europium was used with a detection solution and the fluorescence was measured. (Delfia® kit—Perkin Elmer). The fluorescence results were rationalized relative to the amount of dsDNA measured. The experiment was carried out without active ingredient on the one hand and with ascorbic acid solubilized in PBS at different concentrations from 0.1 to 100 μM. The experiment was carried out according to the protocol described in example 1 with fibroblasts extracted from a biopsy from a donor. The cells at confluency were incubated in the presence of the active ingredients for 48 hours at 37° C. under 0.5% CO2 or without active ingredient (control) for 48 hours at 37° C. under 0.5% CO2. […]"}}, "data": [{"molecule": "O=C1O[C@H]([C@@H](O)CO)C(O)=C1O", "note": "[Ascorbic acid]", "values": [{"measurement": "Procollagen concentration in the intracellular compartment versus untreated control", "setting": "[1]", "result": "less than that observed with the untreated control"}, {"measurement": "Effect on amount of collagen I in the ECM", "setting": "[2]; 50 μM, Example 6", "result": "significant increase in the amount of collagen I in the ECM"}, {"measurement": "Concentration up to which the effect on content of collagen I in the ECM is dose-dependent (threshold effect)", "setting": "[2]; Example 4, 0.1 to 100 μM", "result": "up to 50 μM"}]}]}
